Here are results for 18 compounds from US8138175B2, “Heterocyclyl compounds” (Hoffmann-La Roche Inc., priority 2008, dated 2012).

Each structure is given as a SMILES string.

This assay addresses T1, human chemokine receptor 2 isoform B (Homo sapiens, UniProt P41597).
T1 construct: host or cells: CHOK1-CCR2B-A5 (CHO-K1) cells
T1 sequence (P41597 1-360 isoform P41597-2): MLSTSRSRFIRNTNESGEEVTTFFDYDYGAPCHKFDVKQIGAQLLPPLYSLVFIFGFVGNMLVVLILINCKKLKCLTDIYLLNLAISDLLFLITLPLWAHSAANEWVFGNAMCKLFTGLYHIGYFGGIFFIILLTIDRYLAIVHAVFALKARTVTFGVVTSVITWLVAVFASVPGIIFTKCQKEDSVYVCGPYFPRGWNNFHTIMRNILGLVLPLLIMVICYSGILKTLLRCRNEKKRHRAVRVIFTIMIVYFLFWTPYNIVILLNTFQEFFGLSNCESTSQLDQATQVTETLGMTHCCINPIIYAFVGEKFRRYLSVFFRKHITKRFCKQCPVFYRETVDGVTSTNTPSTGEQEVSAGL
The assay is described as follows: Calcium mobilization assay. The class given is cell-based. Conditions: Ca mobilization assay for CCR2; CHOK1-CCR2B-A5 cells; antagonist activity against 20 nM MCP-1; FLIPR, Fluo-4. On the technique in general: Calcium assays in cells follow changes in intracellular calcium, usually with a dye or a luminescent sensor.
`COC(=O)C(CCN1CCC2(CC2)[C@H](O)C1)N1CCN(c2cccc(C(F)(F)F)c2)CCC1=O` (stereo partly drawn) [Example 15, (R,S)-4-((S)-4-Hydroxy-6-aza-spiro[2.5]oct-6-yl)-2-[7-oxo-4-(3-trifluoromethyl-phenyl)-[1,4]diazepan-1-yl]-butyric acid methyl ester]: the half-maximal inhibitory concentration (IC50) worked out at 60 nM.
As for `COC(=O)[C@H](CCN1CCC2(CC2)[C@H](O)C1)N1CCN(c2ccc(Cl)c(Cl)c2)CCC1=O` [Example 1, (S)-2-[4-(3,4-Dichloro-phenyl)-7-oxo-[1,4]diazepan-1-yl]-4-((S)-4-hydroxy-6-aza-spiro[2.5]oct-6-yl)-butyric acid methyl ester], the IC50 was 40 nM.
For `C[C@H]1C(=O)N(CCCN2CCC3(CC3)[C@H](O)C2)CCN1c1ccc(Cl)c(Cl)c1` [Example 74, (S)-4-(3,4-Dichloro-phenyl)-1-[3-((S)-4-hydroxy-6-aza-spiro[2.5]oct-6-yl)-propyl]-3-methyl-piperazin-2-one], the IC50 worked out at 5 nM.
The figure for `C[C@H]1C(=O)N(CCCN2CCC3(CC3)[C@H](O)C2)CCN1c1ccc(F)c(Cl)c1` [Example 79, (S)-4-(3-Chloro-4-fluoro-phenyl)-1-[3-((S)-4-hydroxy-6-aza-spiro[2.5]oct-6-yl)-propyl]-3-methyl-piperazin-2-one] is 29 nM.
In the case of `O=C1CCN(c2cccc(C(F)(F)F)c2)CCN1C(CO)CCCN1CCC2(CC2)[C@H](O)C1` (stereo partly drawn) [Example 27, 4-[(R,S)-4-((S)-4-Hydroxy-6-aza-spiro[2.5]oct-6-yl)-1-hydroxymethyl-butyl]-1-(3-trifluoromethyl-phenyl)-[1,4]diazepan-5-one], the IC50 amounted to 70 nM.
Next, `O=C1CCN(c2cccc(OC(F)(F)F)c2)CCN1C(CO)CCCN1CCC2(CC2)[C@H](O)C1` (stereo partly drawn) [Example 32, 4-[(R,S)-4-((S)-4-Hydroxy-6-aza-spiro[2.5]oct-6-yl)-1-hydroxymethyl-butyl]-1-(3-trifluoromethoxy-phenyl)-[1,4]diazepan-5-one]: 140 nM; `COCC(CCCN1CCC2(CC2)[C@H](O)C1)N1CCN(c2cccc(C(F)(F)F)c2)CCC1=O` (stereo partly drawn) [Example 28, 4-[(R,S)-4-((S)-4-Hydroxy-6-aza-spiro[2.5]oct-6-yl)-t-methoxymethyl-butyl]-1-(3-trifluoromethyl-phenyl)-[1,4]diazepan-5-one]: 400 nM; `O=C1CCN(c2ccc(Cl)c(Cl)c2)CCN1[C@H](CO)CCN1CCC2(CC2)[C@H](O)C1` [Example 2, 1-(3,4-Dichloro-phenyl)-4-[(S)-3-((S)-4-hydroxy-6-aza-spiro[2.5]oct-6-yl)-1-hydroxymethyl-propyl]-[1,4]diazepan-5-one]: 10 nM.
Turning to `O=C1CCN(c2cccc(C(F)(F)F)c2)CCN1[C@H](CO)CCN1CCC2(CC2)[C@H](O)C1` [Example 6, 4-[(S)-3-((S)-4-Hydroxy-6-aza-spiro[2.5]oct-6-yl)-1-hydroxymethyl-propyl]-1-(3-trifluoromethyl-phenyl)-[1,4]diazepan-5-one], the IC50 is 10 nM.
The figure for `C[C@H]1C[C@H](O)CN(CCC(C(=O)N(C)C)N2CCN(c3cccc(C(F)(F)F)c3)CCC2=O)C1` (stereo partly drawn) [Example 18, (R,S)-4-((3S,5S)-3-Hydroxy-5-methyl-piperidin-1-yl)-N,N-dimethyl-2-[7-oxo-4-(3-trifluoromethyl-phenyl)-[1,4]diazepan-1-yl]-butyramide] is 650 nM; for `COC(=O)C(CCN1CCC2(CC2)[C@H](O)C1)N1CCN(c2cccc(C(F)(F)F)c2)C(C)C1=O` (stereo partly drawn) [Example 54, 4-((S)-4-Hydroxy-6-aza-spiro[2.5]oct-6-yl)-2-[3-methyl-2-oxo-4-(3-trifluoromethyl-phenyl)-piperazin-1-yl]-butyric acid methyl ester] it is 10 nM.
The figure for `C[C@H]1C(=O)N(C[C@@H](O)CCN2CCC3(CC3)[C@H](O)C2)CCN1c1ccc(Cl)c(Cl)c1` [Example 105, (S)-4-(3,4-Dichloro-phenyl)-1-[(S)-2-hydroxy-4-((S)-4-hydroxy-6-aza-spiro[2.5]oct-6-yl)-butyl]-3-methyl-piperazin-2-one] is 27 nM.
Turning to `COC(=O)[C@@H](CCN1CCC2(CC2)[C@H](O)C1)N1CCN(c2cccc(C(F)(F)F)c2)CCC1=O` [Example 8, (R)-4-((S)-4-Hydroxy-6-aza-spiro[2.5]oct-6-yl)-2-[7-oxo-4-(3-trifluoromethyl-phenyl)-[1,4]diazepan-1-yl]-butyric acid methyl ester], the IC50 was determined as 600 nM.
The figure for `O=C1CCN(c2cccc(C(F)(F)F)c2)CCN1C(CO)CCN1CCC2(CC2)[C@H](O)C1` (stereo partly drawn) [Example 16, 4-[(R,S)-3-((S)-4-Hydroxy-6-aza-spiro[2.5]oct-6-yl)-1-hydroxymethyl-propyl]-1-(3-trifluoromethyl-phenyl)-[1,4]diazepan-5-one] is 10 nM; for `CN(C(=O)[C@H](CCN1CCC2(CC2)[C@H](O)C1)N1CCN(c2ccc(Cl)c(Cl)c2)CCC1=O)C1CC1` [Example 62, (S)—N-Cyclopropyl-2-[4-(3,4-dichloro-phenyl)-7-oxo-[1,4]diazepan-1-yl]-4-((S)-4-hydroxy-6-aza-spiro[2.5]oct-6-yl)-N-methyl-butyramide] it is 330 nM; for `COC(=O)[C@H](CCN1CCC2(CC2)[C@H](O)C1)N1CCN(c2cccc(C(F)(F)F)c2)CCC1=O` [Example 5, (S)-4-((S)-4-Hydroxy-6-aza-spiro[2.5]oct-6-yl)-2-[7-oxo-4-(3-trifluoromethyl-phenyl)-[1,4]diazepan-1-yl]-butyric acid methyl ester] it is 20 nM.
Next, `C[C@H]1C(=O)N(CCCN2CCC3(CC3)[C@H](O)C2)CCN1c1cccc(OC(F)(F)F)c1` [Example 45, (S)-1-[3-((S)-4-Hydroxy-6-aza-spiro[2.5]oct-6-yl)-propyl]-3-methyl-4-(3-trifluoromethoxy-phenyl)-piperazin-2-one]: 10 nM; `COC(=O)[C@H](CCN1CCC2(CC2)[C@H](O)C1)N1CCN(c2ccc(C(F)(F)F)cc2)CCC1=O` [Example 19, (S)-4-((S)-4-Hydroxy-6-aza-spiro[2.5]oct-6-yl)-2-[7-oxo-4-(4-trifluoromethyl-phenyl)-[1,4]diazepan-1-yl]-butyric acid methyl ester]: 410 nM.

In general, IC50 refers to the concentration that inhibits the measured activity by half.
